This assay addresses T1, human Patched (Patched 1; hPatched-MAP) (Homo sapiens, UniProt Q13635).
T1 construct: gene PTCH1; human Patched with MAP tag from pYEP-hPatched-MAP, expressed in Saccharomyces cerevisiae K699; whole yeast, not purified
T1 sequence (Q13635 1-1447): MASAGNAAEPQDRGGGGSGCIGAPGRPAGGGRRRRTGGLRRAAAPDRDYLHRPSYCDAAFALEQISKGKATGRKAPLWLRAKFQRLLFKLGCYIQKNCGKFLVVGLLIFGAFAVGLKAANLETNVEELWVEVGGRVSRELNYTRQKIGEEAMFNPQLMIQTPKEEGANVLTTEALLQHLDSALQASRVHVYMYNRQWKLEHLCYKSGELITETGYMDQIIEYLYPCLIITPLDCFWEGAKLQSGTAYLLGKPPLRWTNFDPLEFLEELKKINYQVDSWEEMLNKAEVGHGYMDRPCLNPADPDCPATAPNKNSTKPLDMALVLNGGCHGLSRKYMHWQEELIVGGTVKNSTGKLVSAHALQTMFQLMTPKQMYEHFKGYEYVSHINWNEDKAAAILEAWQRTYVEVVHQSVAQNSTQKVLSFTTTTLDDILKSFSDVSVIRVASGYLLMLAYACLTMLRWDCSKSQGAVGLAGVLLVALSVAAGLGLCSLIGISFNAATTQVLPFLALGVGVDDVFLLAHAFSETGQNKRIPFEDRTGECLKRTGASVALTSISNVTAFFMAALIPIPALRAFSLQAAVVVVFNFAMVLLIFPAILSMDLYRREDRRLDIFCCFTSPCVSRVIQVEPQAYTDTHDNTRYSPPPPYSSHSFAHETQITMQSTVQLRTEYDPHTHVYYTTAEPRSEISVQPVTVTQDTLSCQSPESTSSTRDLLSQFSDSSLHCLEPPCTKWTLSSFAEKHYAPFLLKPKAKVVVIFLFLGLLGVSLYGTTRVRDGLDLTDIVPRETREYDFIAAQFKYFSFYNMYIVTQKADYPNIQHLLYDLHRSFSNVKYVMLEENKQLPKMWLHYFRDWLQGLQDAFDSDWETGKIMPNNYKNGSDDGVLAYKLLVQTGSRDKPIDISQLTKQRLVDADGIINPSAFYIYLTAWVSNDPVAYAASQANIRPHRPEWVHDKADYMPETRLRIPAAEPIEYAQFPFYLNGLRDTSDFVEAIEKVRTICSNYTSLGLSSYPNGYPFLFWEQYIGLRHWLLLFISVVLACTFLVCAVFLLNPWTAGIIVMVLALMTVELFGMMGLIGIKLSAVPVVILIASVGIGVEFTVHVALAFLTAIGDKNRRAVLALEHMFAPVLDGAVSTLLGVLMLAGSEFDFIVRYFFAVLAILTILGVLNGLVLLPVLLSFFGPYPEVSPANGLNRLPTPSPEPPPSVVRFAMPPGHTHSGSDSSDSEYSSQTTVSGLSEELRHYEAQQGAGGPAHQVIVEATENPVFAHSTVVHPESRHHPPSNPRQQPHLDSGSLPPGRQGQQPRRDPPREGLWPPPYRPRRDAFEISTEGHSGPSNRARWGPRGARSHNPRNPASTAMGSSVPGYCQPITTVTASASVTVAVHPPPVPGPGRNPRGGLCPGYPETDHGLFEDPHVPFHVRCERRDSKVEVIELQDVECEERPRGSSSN
As to the kind of experiment: doxorubicin efflux from de-energized yeast, fluorescence microscopy. The format is cell-based. The following applies: read-out: % inhibition of dxr efflux at 10 μM.

The inhibition is the change of the read-out against control, counted positive when it falls.

Regarding `COc1cc(C)c(CC/C(C)=C/Cc2cc(O)ccc2O)c(C)c1C` [compound 1, panicein A hydroquinone], the inhibition at 10 µM was about 40%.

Source of the values: PMC4673163, “Natural paniceins from mediterranean sponge inhibit the multidrug resistance activity of Patched and increase chemotherapy efficiency on melanoma cells” (Oncotarget, 2015).
